Reference: ChEMBL document CHEMBL1201862, “PubChem BioAssay data set” (2004)
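A five-concentration, 48-hour dose response in 96-well plates underlies each endpoint, interpolated linearly between surrounding concentrations. Here, GI50 denotes the concentration required for 50% inhibition of growth.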 The source made the active and inactive calls. Rule as the data show it: active = GI50 up to about 1.1 µM and inactive = higher.

Columns and labels:
Assay in all cases: growth of human tumour cells (NCI), 48 h
OVCAR-8 = test system: OVCAR-8
HCT-15 = test system: HCT-15
A549 = test system: A549
K562 = test system: K562
SK-MEL-2 = test system: SK-MEL-2
SK-OV-3 = test system: SK-OV-3
LOX IMVI = test system: LOX IMVI
SK-MEL-5 = test system: SK-MEL-5
Malme-3M = test system: Malme-3M
SK-MEL-28 = test system: SK-MEL-28
HT-29 = test system: HT-29
OVCAR-5 = test system: OVCAR-5
A498 = test system: A498
TK-10 = test system: TK-10
NCI-H226 = test system: NCI-H226
HOP-62 = test system: HOP-62
HCC 2998 = test system: HCC 2998
SF-539 = test system: SF-539
SF-268 = test system: SF-268

C=C=C(CC(CC(=C)Br)(C(=O)OC)C(=O)OC)S(=O)(=O)c1ccccc1 was tested, and the GI50 (OVCAR-8) was 1.29 µM (inactive), the GI50 (HCT-15) was 1.51 µM and the GI50 (A549) was 2.78 µM (inactive). For the same compound, the GI50 (K562) was 1.48 µM (inactive), the GI50 (SK-MEL-2) was 2.5 µM (inactive) and the GI50 (SK-OV-3) was 16.6 µM (inactive). The GI50 (LOX IMVI) was 0.419 µM (active), the GI50 (SK-MEL-5) was 3.11 µM (inactive) and the GI50 (Malme-3M) was 1.91 µM (inactive). The GI50 (SK-MEL-28) was 1.76 µM (inactive), the GI50 (HT-29) was 1.62 µM (inactive) and the GI50 (OVCAR-5) was 1.65 µM (inactive). The GI50 (A498) was 5.6 µM (inactive), the GI50 (TK-10) was 1.96 µM (inactive) and the GI50 (NCI-H226) was 6.12 µM (inactive). The GI50 (HOP-62) was 5.21 µM (inactive), the GI50 (HCC 2998) was 2.58 µM (inactive) and the GI50 (SF-539) was 1.8 µM (inactive). The GI50 (SF-268) was 2.37 µM (inactive).
In the case of c1ccc(CCN2CCN=C2Cc2ccccc2)cc1, the GI50 (OVCAR-8) is reported as > 100 µM (inactive), the GI50 (HCT-15) is reported as > 100 µM and the GI50 (A549) is reported as > 100 µM (inactive). The GI50 (K562) was 29.2 µM (inactive), the GI50 (SK-MEL-2) was > 100 µM (inactive) and the GI50 (SK-OV-3) was > 100 µM (inactive). The GI50 (LOX IMVI) was > 100 µM (inactive), the GI50 (SK-MEL-5) was > 100 µM (inactive) and the GI50 (Malme-3M) was > 100 µM (inactive). For the same compound, the GI50 (SK-MEL-28) was > 100 µM (inactive), the GI50 (HT-29) was 67.1 µM (inactive) and the GI50 (OVCAR-5) was > 100 µM (inactive). The GI50 (A498) was > 100 µM (inactive), the GI50 (TK-10) was > 100 µM (inactive) and the GI50 (NCI-H226) was > 100 µM (inactive). The GI50 (HOP-62) was > 100 µM (inactive), the GI50 (HCC 2998) was 21.3 µM (inactive) and the GI50 (SF-268) was > 100 µM (inactive).
C[C@]12CC(c3ccccc3O1)C(C(=O)Nc1nc(C34CC5CC(CC(C5)C3)C4)cs1)C(=O)N2 (some centres undefined) was tested, and the GI50 (OVCAR-8) was > 100 µM (inactive), the GI50 (HCT-15) was > 100 µM and the GI50 (A549) was > 100 µM (inactive). For the same compound, the GI50 (K562) was > 100 µM (inactive), the GI50 (SK-MEL-2) was > 100 µM (inactive) and the GI50 (SK-OV-3) was > 100 µM (inactive). The GI50 (LOX IMVI) was > 100 µM (inactive), the GI50 (SK-MEL-5) was > 100 µM (inactive) and the GI50 (Malme-3M) was 34.7 µM (inactive). For the same compound, the GI50 (SK-MEL-28) was > 100 µM (inactive), the GI50 (HT-29) was > 100 µM (inactive) and the GI50 (OVCAR-5) was > 100 µM (inactive). For the same compound, the GI50 (A498) was > 100 µM (inactive), the GI50 (NCI-H226) was > 100 µM (inactive) and the GI50 (HOP-62) was > 100 µM (inactive). The GI50 (HCC 2998) was > 100 µM (inactive) and the GI50 (SF-268) was > 100 µM (inactive).
For CS/C(N)=N/c1cccc2ccccc12, the GI50 (OVCAR-8) was > 10 µM (inactive), the GI50 (HCT-15) was > 10 µM and the GI50 (A549) was > 10 µM (inactive). For the same compound, the GI50 (K562) was > 10 µM (inactive), the GI50 (SK-MEL-2) was > 10 µM (inactive) and the GI50 (SK-OV-3) was > 10 µM (inactive). The GI50 (LOX IMVI) was > 10 µM (inactive), the GI50 (SK-MEL-5) was > 10 µM (inactive) and the GI50 (Malme-3M) was > 10 µM (inactive). For the same compound, the GI50 (SK-MEL-28) was > 10 µM (inactive), the GI50 (HT-29) was > 10 µM (inactive) and the GI50 (A498) was > 10 µM (inactive). For the same compound, the GI50 (TK-10) was > 10 µM (inactive), the GI50 (NCI-H226) was > 10 µM (inactive) and the GI50 (HOP-62) was > 10 µM (inactive). For the same compound, the GI50 (HCC 2998) was > 10 µM (inactive), the GI50 (SF-539) was > 10 µM (inactive) and the GI50 (SF-268) was > 10 µM (inactive).
With NC(=O)C(=CNC(=S)Nc1ccccc1)C(N)=O the GI50 (OVCAR-8) was > 100 µM (inactive), the GI50 (HCT-15) was > 100 µM and the GI50 (A549) was > 100 µM (inactive). The GI50 (K562) was > 100 µM (inactive), the GI50 (SK-MEL-2) was > 100 µM (inactive) and the GI50 (SK-OV-3) was > 100 µM (inactive). The GI50 (LOX IMVI) was > 100 µM (inactive), the GI50 (SK-MEL-5) was > 100 µM (inactive) and the GI50 (Malme-3M) was > 100 µM (inactive). For the same compound, the GI50 (SK-MEL-28) was > 100 µM (inactive), the GI50 (HT-29) was > 100 µM (inactive) and the GI50 (OVCAR-5) was > 100 µM (inactive). The GI50 (A498) was > 100 µM (inactive), the GI50 (NCI-H226) was > 100 µM (inactive) and the GI50 (HOP-62) was > 100 µM (inactive). For the same compound, the GI50 (HCC 2998) was > 100 µM (inactive), the GI50 (SF-539) was > 100 µM (inactive) and the GI50 (SF-268) was > 100 µM (inactive).
With COC1CC(n2ccc(=O)[nH]c2=O)OC1CO (centres undefined) the GI50 (OVCAR-8) was > 100 µM (inactive), the GI50 (HCT-15) was > 100 µM and the GI50 (A549) was > 100 µM (inactive). For the same compound, the GI50 (K562) was > 100 µM (inactive), the GI50 (SK-MEL-2) was > 100 µM (inactive) and the GI50 (SK-OV-3) was > 100 µM (inactive). For the same compound, the GI50 (LOX IMVI) was > 100 µM (inactive), the GI50 (SK-MEL-5) was > 100 µM (inactive) and the GI50 (Malme-3M) was > 100 µM (inactive). For the same compound, the GI50 (SK-MEL-28) was > 100 µM (inactive), the GI50 (HT-29) was > 100 µM (inactive) and the GI50 (OVCAR-5) was > 100 µM (inactive). The GI50 (A498) was > 100 µM (inactive), the GI50 (NCI-H226) was > 100 µM (inactive) and the GI50 (HOP-62) was > 100 µM (inactive). For the same compound, the GI50 (HCC 2998) was > 100 µM (inactive), the GI50 (SF-539) was > 100 µM (inactive) and the GI50 (SF-268) was > 100 µM (inactive).
CCCCc1ccc(Nc2nc(Cl)c3ncn(COCCOC(C)=O)c3n2)cc1 was tested, and the GI50 (OVCAR-8) was 18.5 µM (inactive), the GI50 (HCT-15) was 16.7 µM and the GI50 (A549) was 20.8 µM (inactive). The GI50 (K562) was 6.04 µM (inactive), the GI50 (SK-MEL-2) was 14.8 µM (inactive) and the GI50 (SK-OV-3) was 19.6 µM (inactive). The GI50 (LOX IMVI) was 14.8 µM (inactive), the GI50 (SK-MEL-5) was 16.7 µM (inactive) and the GI50 (Malme-3M) was 17.3 µM (inactive). The GI50 (HT-29) was 17.3 µM (inactive), the GI50 (OVCAR-5) was 17.9 µM (inactive) and the GI50 (A498) was 25.5 µM (inactive). For the same compound, the GI50 (TK-10) was 20.3 µM (inactive), the GI50 (NCI-H226) was 21.5 µM (inactive) and the GI50 (HOP-62) was 17.1 µM (inactive). For the same compound, the GI50 (HCC 2998) was 11.9 µM (inactive), the GI50 (SF-539) was 19.5 µM (inactive) and the GI50 (SF-268) was 19.4 µM (inactive).
For Cc1ccc(C(=O)Nc2ccc(CP(=O)(O)O)cc2)cc1NC(=O)Nc1cc(C(=O)Nc2ccc(CP(=O)(O)O)cc2)ccc1C, the GI50 (OVCAR-8) was > 100 µM (inactive), the GI50 (HCT-15) was > 100 µM and the GI50 (A549) was > 100 µM (inactive). The GI50 (SK-MEL-2) was > 100 µM (inactive), the GI50 (SK-OV-3) was > 100 µM (inactive) and the GI50 (LOX IMVI) was > 100 µM (inactive). For the same compound, the GI50 (SK-MEL-5) was > 100 µM (inactive), the GI50 (Malme-3M) was > 100 µM (inactive) and the GI50 (SK-MEL-28) was > 100 µM (inactive). The GI50 (HT-29) was > 100 µM (inactive), the GI50 (OVCAR-5) was > 100 µM (inactive) and the GI50 (A498) was > 100 µM (inactive). The GI50 (TK-10) was > 100 µM (inactive), the GI50 (NCI-H226) was > 100 µM (inactive) and the GI50 (HOP-62) was > 100 µM (inactive). The GI50 (HCC 2998) was > 100 µM (inactive), the GI50 (SF-539) was > 100 µM (inactive) and the GI50 (SF-268) was > 100 µM (inactive).
